From ChEMBL document CHEMBL3875230, “Structure-Guided Design of Novel, Potent, and Selective Macrocyclic Plasma Kallikrein Inhibitors” (ACS Med Chem Lett, 2017) come the findings set out here.

One data set deals with Plasma kallikrein (Homo sapiens, UniProt P03952). Kind of data set: Inhibition of human plasma kallikrein using D-Pro-Phe-Arg-pNA as substrate preincubated for 30 mins followed by substrate addition. The data set is classed as cell-free.
For the next data set, the target named is Prothrombin (Homo sapiens, UniProt P00734). Kind of data set: Inhibition of alpha-thrombin (unknown origin) using D-Phe-Pip-Arg-pNA as substrate preincubated for 30 mins followed by substrate addition.
For data set [1], the target named is Tissue-type plasminogen activator (Homo sapiens, UniProt P00750). Kind of data set: Inhibition of tPA (unknown origin) using Methylsulfonyl-D-Phe-Gly-Arg-pNA as substrate preincubated for 30 mins followed by substrate addition.
Sequence of Tissue-type plasminogen activator (P00750 whole entry): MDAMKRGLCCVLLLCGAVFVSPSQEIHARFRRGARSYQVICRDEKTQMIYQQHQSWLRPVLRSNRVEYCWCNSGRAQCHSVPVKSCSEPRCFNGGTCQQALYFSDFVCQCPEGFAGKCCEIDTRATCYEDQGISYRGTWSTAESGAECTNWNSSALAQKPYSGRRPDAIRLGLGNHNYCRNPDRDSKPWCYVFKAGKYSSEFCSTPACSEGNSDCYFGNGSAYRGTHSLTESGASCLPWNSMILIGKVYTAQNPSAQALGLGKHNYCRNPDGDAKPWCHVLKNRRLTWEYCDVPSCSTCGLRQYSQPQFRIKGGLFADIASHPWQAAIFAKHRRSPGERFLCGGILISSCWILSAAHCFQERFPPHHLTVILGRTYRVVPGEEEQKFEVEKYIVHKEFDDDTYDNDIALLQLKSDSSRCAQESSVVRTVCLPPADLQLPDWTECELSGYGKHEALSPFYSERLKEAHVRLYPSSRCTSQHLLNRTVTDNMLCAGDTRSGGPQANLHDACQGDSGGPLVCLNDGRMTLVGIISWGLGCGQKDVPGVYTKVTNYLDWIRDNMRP
The nature of data set [2]: Inhibition of bovine trypsin using S-2765 as substrate incubated for 30 mins followed by substrate addition. On the set-up: species or system Bos taurus.
The target in a further data set is T1, Coagulation factor XII (Homo sapiens, UniProt P00748).
T1 sequence (P00748 whole entry): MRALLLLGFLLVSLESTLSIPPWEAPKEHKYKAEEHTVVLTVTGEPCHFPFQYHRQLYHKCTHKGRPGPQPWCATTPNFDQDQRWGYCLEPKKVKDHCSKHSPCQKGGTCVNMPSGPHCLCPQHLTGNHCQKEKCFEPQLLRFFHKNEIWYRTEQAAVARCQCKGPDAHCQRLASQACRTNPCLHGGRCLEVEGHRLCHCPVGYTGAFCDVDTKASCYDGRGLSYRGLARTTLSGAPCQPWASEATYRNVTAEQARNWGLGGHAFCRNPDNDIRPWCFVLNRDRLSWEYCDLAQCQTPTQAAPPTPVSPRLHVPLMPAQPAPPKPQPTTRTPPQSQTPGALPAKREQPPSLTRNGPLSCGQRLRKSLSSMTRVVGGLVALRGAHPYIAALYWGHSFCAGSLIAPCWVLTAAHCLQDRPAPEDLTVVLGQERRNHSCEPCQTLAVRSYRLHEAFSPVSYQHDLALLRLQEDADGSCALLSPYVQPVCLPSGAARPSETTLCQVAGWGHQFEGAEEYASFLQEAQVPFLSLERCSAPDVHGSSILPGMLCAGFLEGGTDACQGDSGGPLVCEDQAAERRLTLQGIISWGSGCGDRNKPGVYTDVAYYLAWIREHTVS
Kind of data set: Inhibition of factor 12a (unknown origin) using D-Pro-Phe-Arg-pNA as substrate preincubated for 30 mins followed by substrate addition.

Data set [3] is described as follows: Oral bioavailability in Sprague-Dawley rat plasma at 20 mg/kg administered via gavage measured up to 24 hrs by LC-MS/MS analysis. The data set is classed as ADME, organism-based.
Data set [4] is described as follows: Half life in rat liver microsomes in presence of NADPH by LC/MS/MS analysis. The data set is classed as ADME. Background: Liver microsomes are vesicles of endoplasmic reticulum, rich in cytochrome P450 enzymes.
Another data set addresses Coagulation factor X (Homo sapiens, UniProt P00742). Kind of data set: Inhibition of factor 10a (unknown origin) using N-Z-D-Arg-Gly-Arg-pNA as substrate preincubated for 30 mins followed by substrate addition.
A further data set deals with Coagulation factor XI (Homo sapiens, UniProt P03951). As to the kind of experiment: Inhibition of factor 11a (unknown origin) using S-2366 as substrate incubated for 30 mins followed by substrate addition.
Sequence of Coagulation factor XI (P03951 19-387 limits assumed): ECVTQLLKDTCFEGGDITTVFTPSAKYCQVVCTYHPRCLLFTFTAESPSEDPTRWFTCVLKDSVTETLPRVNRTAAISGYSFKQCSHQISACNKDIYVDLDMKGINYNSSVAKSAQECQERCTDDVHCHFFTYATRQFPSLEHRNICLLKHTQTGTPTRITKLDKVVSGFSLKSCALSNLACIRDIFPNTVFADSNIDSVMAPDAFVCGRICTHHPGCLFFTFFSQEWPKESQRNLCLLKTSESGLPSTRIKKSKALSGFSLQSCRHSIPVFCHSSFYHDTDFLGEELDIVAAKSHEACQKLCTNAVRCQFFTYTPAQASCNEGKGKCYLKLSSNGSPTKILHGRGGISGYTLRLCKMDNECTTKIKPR
Sequence of Coagulation factor XI (P03951 388-625 limits assumed): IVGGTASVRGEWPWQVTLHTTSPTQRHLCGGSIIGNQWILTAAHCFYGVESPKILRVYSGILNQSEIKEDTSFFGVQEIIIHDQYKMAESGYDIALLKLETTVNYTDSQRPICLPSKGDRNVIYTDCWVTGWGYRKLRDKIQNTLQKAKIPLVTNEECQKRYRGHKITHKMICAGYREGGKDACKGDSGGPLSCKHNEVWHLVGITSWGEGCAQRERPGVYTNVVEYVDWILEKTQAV
The nature of data set [5]: Apparent permeability across MDCK cells at 1 uM. The data set is classed as ADME, cell-based, Canis lupus familiaris. The note with it: dog.
The next data set deals with Plasminogen (Homo sapiens, UniProt P00747). Kind of data set: Inhibition of Lys-plasmin (unknown origin) using Tosyl-Gly-Pro-Lys-4-nitranilide as substrate preincubated for 30 mins followed by substrate addition.
Sequence of Plasminogen (P00747 97-580 limits assumed): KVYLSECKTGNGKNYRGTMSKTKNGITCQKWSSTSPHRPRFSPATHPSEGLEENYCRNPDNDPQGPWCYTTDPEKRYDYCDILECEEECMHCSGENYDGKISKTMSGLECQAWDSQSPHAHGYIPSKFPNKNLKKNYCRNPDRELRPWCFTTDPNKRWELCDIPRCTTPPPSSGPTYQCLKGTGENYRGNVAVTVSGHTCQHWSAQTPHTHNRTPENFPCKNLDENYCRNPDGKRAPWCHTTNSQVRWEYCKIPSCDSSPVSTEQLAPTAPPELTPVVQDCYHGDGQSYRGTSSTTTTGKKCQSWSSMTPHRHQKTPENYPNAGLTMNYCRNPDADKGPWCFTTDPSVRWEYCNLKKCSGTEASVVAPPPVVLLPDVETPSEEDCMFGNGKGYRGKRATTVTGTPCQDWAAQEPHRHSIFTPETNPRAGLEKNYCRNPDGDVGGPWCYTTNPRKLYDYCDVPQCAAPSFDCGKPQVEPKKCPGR
Sequence of Plasminogen (P00747 581-810 limits assumed): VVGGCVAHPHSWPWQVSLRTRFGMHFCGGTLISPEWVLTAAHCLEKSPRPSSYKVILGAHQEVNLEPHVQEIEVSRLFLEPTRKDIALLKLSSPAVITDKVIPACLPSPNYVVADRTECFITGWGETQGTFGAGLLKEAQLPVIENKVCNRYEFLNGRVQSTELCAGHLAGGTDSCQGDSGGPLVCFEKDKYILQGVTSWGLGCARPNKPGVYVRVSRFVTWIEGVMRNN
Data set [6] in a line: Cmax in Sprague-Dawley rat plasma at 20 mg/kg administered via oral gavage measured up to 24 hrs by LC-MS/MS analysis. It is filed as ADME, organism-based. More on the design: dose 20 mg/kg, route oral.

Broadly, the IC50 is the midpoint of a concentration-inhibition curve. The low end stands for inhibition by little substance, the high end for a need for much substance. Usually bioavailability stands for dose-corrected exposure relative to a reference, in per cent. Higher therefore signals good availability. The half-life is the time needed for the level to fall by half in the phase considered. By Papp is commonly meant a coefficient for how fast a substance crosses the barrier. As usually defined, the Cmax is the highest concentration seen after dosing.

Where only a bound is given, the exact number is not on record here.

Sequence of Plasma kallikrein (P03952 20-390 limits assumed): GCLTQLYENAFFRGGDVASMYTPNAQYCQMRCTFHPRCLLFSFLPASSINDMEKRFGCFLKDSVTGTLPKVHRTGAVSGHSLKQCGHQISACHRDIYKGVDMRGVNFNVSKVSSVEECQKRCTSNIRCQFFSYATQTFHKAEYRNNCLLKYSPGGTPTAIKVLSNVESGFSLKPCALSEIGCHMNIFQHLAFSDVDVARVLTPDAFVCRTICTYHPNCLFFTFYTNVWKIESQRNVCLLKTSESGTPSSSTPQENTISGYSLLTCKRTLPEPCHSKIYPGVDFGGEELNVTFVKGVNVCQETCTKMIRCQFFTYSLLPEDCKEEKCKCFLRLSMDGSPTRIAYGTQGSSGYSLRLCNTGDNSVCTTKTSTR
Sequence of Plasma kallikrein (P03952 391-638 limits assumed): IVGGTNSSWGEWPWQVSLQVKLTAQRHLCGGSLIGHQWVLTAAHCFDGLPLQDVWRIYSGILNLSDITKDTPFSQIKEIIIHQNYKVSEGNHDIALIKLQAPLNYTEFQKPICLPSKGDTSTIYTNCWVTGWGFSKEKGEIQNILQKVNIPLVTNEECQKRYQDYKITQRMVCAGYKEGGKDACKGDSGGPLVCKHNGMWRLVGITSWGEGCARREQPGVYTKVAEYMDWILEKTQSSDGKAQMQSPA
Sequence of Coagulation factor X (P00742 41-179 limits assumed): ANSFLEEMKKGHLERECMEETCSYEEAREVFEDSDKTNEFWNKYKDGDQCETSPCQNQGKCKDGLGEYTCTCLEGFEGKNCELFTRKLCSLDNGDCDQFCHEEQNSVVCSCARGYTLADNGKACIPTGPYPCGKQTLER
Sequence of Coagulation factor X (P00742 235-488 limits assumed): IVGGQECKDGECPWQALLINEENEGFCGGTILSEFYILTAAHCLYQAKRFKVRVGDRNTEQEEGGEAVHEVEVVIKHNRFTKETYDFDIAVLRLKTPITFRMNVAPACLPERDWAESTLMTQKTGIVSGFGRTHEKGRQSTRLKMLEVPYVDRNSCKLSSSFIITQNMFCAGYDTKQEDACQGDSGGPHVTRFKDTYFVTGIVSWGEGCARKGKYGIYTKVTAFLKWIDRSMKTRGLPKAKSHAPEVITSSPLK

For the compound `Cc1cc(N)nc2c1CNC(=O)c1cnn(c1)Cc1ccc(Cn3cccn3)cc1OCC/C=C/CCO2`, the midpoint of inhibition at Plasma kallikrein, the IC50, lay at 53.2 µM.

On to `Cc1nc(N)ccc1CNC(=O)c1cnn(Cc2ccc(Cn3cccn3)cc2)c1`, for which the IC50 against Prothrombin was greater than 1000 µM; in data set [1] it was greater than 1000 µM; against Plasma kallikrein, 0.0024 µM; in data set [2], 578 µM; at Coagulation factor XII, greater than 1000 µM; against Coagulation factor X, greater than 1000 µM. Moreover, the IC50 was 106 µM against Coagulation factor XI and greater than 1000 µM on Plasminogen. The compound also yielded a bioavailability in [3] of 6%. For the same compound, the half-life in data set [4] came to 48 min. Besides, in data set [5], the apparent permeability coefficient (Papp) at 1 µM is less than 1 ×10⁻⁶ cm/s. The Cmax in data set [6] stood at 25 ng/mL.

With `Cc1nc(N)cc2c1CNC(=O)c1cnn(c1)Cc1ccc(Cn3cccn3)cc1OCC/C=C/CCO2`, the 50% inhibitory concentration (IC50) at Plasma kallikrein amounted to 1.21 µM.

`Cc1nc(N)cc2c1CNC(=O)c1cnn(c1)Cc1ccc(Cn3cccn3)cc1OCCC/C=C\CCO2`: the half-inhibitory concentration (IC50) against Prothrombin is greater than 200 µM; in [1], greater than 200 µM; on Plasma kallikrein it was 0.0423 µM; in data set [2], greater than 200 µM; on Coagulation factor XII, greater than 200 µM; against Coagulation factor X, greater than 200 µM. Moreover, the half-maximal inhibitory concentration (IC50) is 40.9 µM on Coagulation factor XI and greater than 200 µM at Plasminogen. Further, the half-life in data set [4] was less than 5 min. The Papp at 1 µM in [5] is less than 1 ×10⁻⁶ cm/s.

For `Cc1nc(N)cc2c1CNC(=O)c1cnn(c1)Cc1ccc(Cn3cccn3)cc1OCC/C=C/CCCO2`, the IC50 was greater than 200 µM against Prothrombin; greater than 200 µM in data set [1]; 0.153 µM on Plasma kallikrein; greater than 200 µM in data set [2]; greater than 200 µM against Coagulation factor XII; greater than 200 µM against Coagulation factor X. The half-inhibitory concentration (IC50) at Coagulation factor XI worked out at 12.7 µM; at Plasminogen, 9.97 µM. In [4], the half-life was less than 5 min. Also, in [5], the Papp at 1 µM is less than 1 ×10⁻⁶ cm/s.

In turn, `Cc1cc(N)nc2c1CNC(=O)c1cnn(c1)Cc1ccc(Cn3cccn3)cc1OCC/C=C\CCO2` displayed a half-maximal inhibitory concentration (IC50) on Plasma kallikrein greater than 3000 µM.

On to `Cc1nc(N)cc2c1CNC(=O)c1cnn(c1)Cc1ccc(Cn3cccn3)cc1OCCC/C=C/CCO2`, for which the IC50 was greater than 200 µM against Prothrombin; greater than 200 µM in [1]; 0.002 µM at Plasma kallikrein; greater than 200 µM in data set [2]; greater than 200 µM at Coagulation factor XII; greater than 200 µM against Coagulation factor X. Further, the IC50 against Coagulation factor XI is 3.61 µM; on Plasminogen it was greater than 200 µM. Besides, the half-life in data set [4] was less than 5 min. The apparent permeability coefficient (Papp) at 1 µM in data set [5] was less than 1 ×10⁻⁶ cm/s.

As to `Cc1nc(N)cc2c1CNC(=O)c1cnn(c1)Cc1ccc(Cn3cccn3)cc1OCCCC=CCCO2` (mixture of isomers), the half-maximal inhibitory concentration (IC50) against Prothrombin is greater than 200 µM; in data set [1], greater than 200 µM; at Plasma kallikrein, 0.0048 µM; in data set [2], greater than 200 µM; against Coagulation factor XII, greater than 200 µM; at Coagulation factor X, greater than 200 µM. For the same compound, the half-maximal inhibitory concentration (IC50) is 11.7 µM at Coagulation factor XI and 21.4 µM at Plasminogen. In data set [4], the half-life is less than 5 min.

`Cc1nc(N)cc2c1CNC(=O)c1cnn(c1)Cc1ccc(Cn3cccn3)cc1OCCCCCCO2`: on Plasma kallikrein, the concentration for half-maximal inhibition (IC50) was determined as 8.31 µM.

In turn, `Cc1nc(N)cc2c1CNC(=O)c1cnn(c1)Cc1ccc(Cn3cccn3)cc1OCC/C=C\CCO2` gave an IC50 against Plasma kallikrein of 1.57 µM.
